Reference: US20230183239A1, “ECTONUCLEOTIDE PYROPHOSPHATASE-PHOSPHODIESTERASE 1 (ENPP-1) INHIBITORS AND USES THEREOF” (AbbVie Inc., priority 2017, published 2023)

Molecular target: T1, ENPP1 (Homo sapiens, UniProt P22413)
T1 sequence (P22413 1-925): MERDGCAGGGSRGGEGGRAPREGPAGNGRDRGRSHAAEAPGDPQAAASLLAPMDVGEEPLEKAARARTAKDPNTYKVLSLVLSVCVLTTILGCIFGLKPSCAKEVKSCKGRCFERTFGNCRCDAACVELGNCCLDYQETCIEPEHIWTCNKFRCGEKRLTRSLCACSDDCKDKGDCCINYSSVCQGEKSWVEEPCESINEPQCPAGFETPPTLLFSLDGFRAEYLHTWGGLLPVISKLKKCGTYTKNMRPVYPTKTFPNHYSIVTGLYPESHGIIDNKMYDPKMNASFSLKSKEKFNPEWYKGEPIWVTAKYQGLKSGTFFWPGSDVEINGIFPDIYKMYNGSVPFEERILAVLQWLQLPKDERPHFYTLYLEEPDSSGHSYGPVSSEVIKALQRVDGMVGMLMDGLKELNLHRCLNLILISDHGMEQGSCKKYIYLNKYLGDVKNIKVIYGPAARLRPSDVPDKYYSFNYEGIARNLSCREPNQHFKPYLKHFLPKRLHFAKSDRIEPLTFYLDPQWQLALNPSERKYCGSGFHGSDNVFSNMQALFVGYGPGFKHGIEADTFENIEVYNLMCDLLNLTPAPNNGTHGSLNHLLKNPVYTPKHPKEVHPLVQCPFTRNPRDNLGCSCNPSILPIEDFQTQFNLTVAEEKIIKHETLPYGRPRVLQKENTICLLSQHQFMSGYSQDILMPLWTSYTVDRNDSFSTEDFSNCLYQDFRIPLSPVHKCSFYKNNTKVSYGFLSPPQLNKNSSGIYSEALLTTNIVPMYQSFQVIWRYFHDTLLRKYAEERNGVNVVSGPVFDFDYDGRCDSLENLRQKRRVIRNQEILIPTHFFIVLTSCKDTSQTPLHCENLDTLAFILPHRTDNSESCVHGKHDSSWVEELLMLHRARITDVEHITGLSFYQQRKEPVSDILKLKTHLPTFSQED
Assay: Indirect quantitation of 2',3'-cGAMP hydrolysis (AMP-Glo Assay kit)
Format: biochemical
Conditions: cGAMP substrate; Ki from IC50 by Cheng-Prusoff; read-out: ENPP1 Inhibition -cGAMP: Ki

Compound	Ki [µM]
COc1cc2ncnc(Nc3ccc(N4CCNS4(=O)=O)cc3)c2cc1OC [Example 243, 2-(4-((6,7-dimethoxyquinazolin-4-yl)amino)phenyl)-1,2,5-thiadiazolidine 1,1-dioxide]	> 1
COc1cc2ncnc(NCc3ccc(S(=O)(=O)O)cc3)c2cc1OC [Example 161, 4-(((6,7-dimethoxyquinazolin-4-yl)amino)methyl)benzene sulfonic acid]	> 1
COc1cc2nccc(Oc3ccc(N)c(F)c3)c2cc1OC [Example 344, 4-((6,7-dimethoxyquinolin-4-yl)oxy)-2-fluoroaniline]	> 1
CNC(=O)c1cc(N2CCC(CCNS(N)(=O)=O)CC2)ncn1 [Example 130, N-methyl-6-(4-(2-(sulfamoylamino)ethyl)piperidin-1-yl)pyrimidine-4-carboxamide]	> 1
COc1ccc(NC(=O)C2CCC(CNS(N)(=O)=O)CC2)cc1OC (stereo not shown) [Example 133, N-(3,4-dimethoxyphenyl)-4-((sulfamoylamino)methyl)cyclohe xane-1-carboxamide]	> 1
COc1cnc(C(=O)N2CCC(CCNS(N)(=O)=O)CC2)cc1OC [Example 124, N-(2-(1-(4,5-dimethoxypicolinoyl)piperidin-4-yl)ethyl)sulfamide]	> 1
NC(=O)c1ccc2nccc(N3CCC(CCNS(N)(=O)=O)CC3)c2c1 [Example 192, 4-(4-(2-(sulfamoylamino)ethyl)piperidin-1-yl)quinoline-6-carboxamide]	> 1
COc1cc2nccc(C(=O)N3CCC(CCNS(N)(=O)=O)CC3)c2cc1OC [Example 154, N-(2-(1-(6,7-dimethoxyquinoline-4-carbonyl)piperidin-4-yl)ethyl)sulfamide]	> 1
COc1ccc2c(Oc3ccc(NS(N)(=O)=O)cc3OC)ccnc2c1 [Example 323, N-(3-methoxy-4-((7-methoxyquinolin-4-yl)oxy)phenyl)sulfamide]	> 1
COc1cc2c(-c3ccc4c(c3)CN(S(N)(=O)=O)CC4)c(C#N)cnc2cn1 [Example 257, 7-(3-cyano-6-methoxy-1,7-naphthyridin-4-yl)-3,4-dihydroisoquinoline-2(1H)-sulfonamide]	> 1
COc1cc2ncnc(N3CCC(CCNS(=O)(=O)N(C)C)CC3)c2cc1OC [Example 143, 2-(1-(6,7-dimethoxyquinazolin-4-yl)piperidin-4-yl)ethan-1-amino(N,N-dimethyl)sulfonamide]	> 1
COc1cc2ncnc(N3CCc4c(cccc4S(=O)(=O)N4CCN(C)CC4)C3)c2cc1OC [Example 41, 6,7-dimethoxy-4-(5-((4-methylpiperazin-1-yl)sulfonyl)-3,4-dihydroisoquinolin-2(1H)-yl)quinazoline]	> 1
COc1cc2ccn(-c3ccc(CNS(N)(=O)=O)cc3)c2cc1OC [Example 186, N-(4-(5,6-dimethoxy-1H-indol-1-yl)benzyl)sulfamide]	> 1
COc1cc2ncnc(N3CCC(CCNS(=O)(=O)Nc4ccccc4)CC3)c2cc1OC [Example 183]	> 1
COc1cc2ncnc(Nc3ccc(CNS(N)(=O)=O)cc3)c2cc1OC [Example 234, N-(4-((6,7-dimethoxyquinazolin-4-yl)amino)benzyl)sulfamide]	> 1
CNC(=O)c1ccc2c(N3CCC(CCNS(N)(=O)=O)CC3)ncnc2c1 [Example 163, N-methyl-4-(4-(2-(sulfamoylamino)ethyl)piperidin-1-yl)quinazoline-7-carboxamide]	> 1
COc1cc2ncnc(NCc3ccc4c(c3)OCO4)c2cc1OC [Example 336, N-(benzo[d][1,3]dioxol-5-ylmethyl)-6,7-dimethoxyquinazolin-4-amine]	> 1
COc1ccc2c(N3CCc4ccc(NS(N)(=O)=O)cc43)ccnc2c1 [Example 391, N-(1-(7-methoxyquinolin-4-yl)indolin-6-yl)sulfamide]	> 1
CNC(=O)c1cc(Oc2ccc(NS(N)(=O)=O)cc2)ccn1 [Example 127, N-methyl-4-(4-(sulfamoylamino)phenoxy)picolinamide]	> 1
NS(=O)(=O)NCCC1CCN(c2ncnc3cc4c(cc23)OCO4)CC1 [Example 170, N-(2-(1-([1,3]dioxolo[4,5-g]quinazolin-8-yl)piperidin-4-yl)ethyl)sulfamide]	> 1
COc1cc(C#N)c(C(=O)N2CCC(CCNS(N)(=O)=O)CC2)cc1OC [Example 129, N-(2-(1-(2-cyano-4,5-dimethoxybenzoyl)piperidin-4-yl)ethyl)sulfamide]	> 1
COc1ccc2c(-c3cc4c(cc3F)CCN(S(N)(=O)=O)C4)ccnc2c1 [Example 409, 6-fluoro-7-(7-methoxyquinolin-4-yl)-3,4-dihydroisoquinoline-2(1H)-sulfamide]	> 1

The next lines start with the values.

Ki [µM]	Compound
0.1 to 1	COc1ccc2c(-c3ccc4c(c3)CN(S(N)(=O)=O)CC4)c(C(F)(F)F)cnc2c1 [Example 408, 7-(7-methoxy-3-(trifluoromethyl)quinolin-4-yl)-3,4-dihydroisoquinoline-2(1H)-sulfonamide]
> 1	COc1cc2ncc(-c3ccc(CNS(N)(=O)=O)cc3)nc2cc1OC [Example 278, N-(4-(6,7-dimethoxyquinoxalin-2-yl)benzyl)sulfamide]
< 0.1	COc1cc2nccc(Oc3ccc(NS(=O)(=O)C(F)(F)F)cc3)c2cc1OC [Example 162, N-(4-((6,7-dimethoxyquinolin-4-yl)oxy)phenyl)-1,1,1-trifluoromethanesulfonamide]
> 1	COc1cc2ncc(-c3ccc4c(c3)CN(S(N)(=O)=O)CC4)nc2cc1OC [Example 295, 7-(6,7-dimethoxyquinoxalin-2-yl)-3,4-dihydroisoquinoline-2(1H)-sulfonamide]
> 1	COc1ccc(-c2cc(N3CCC(CNS(N)(=O)=O)CC3)ncn2)cc1OC [Example 37, N-((1-(6-(3,4-dimethoxyphenyl)pyrimidin-4-yl)piperidin-4-yl)methyl)sulfamide]
> 1	COc1cc2ncn(Cc3ccc(NS(N)(=O)=O)cc3)c(=O)c2cc1OC [Example 165, N-(4-((6,7-dimethoxy-4-oxoquinazolin-3 (4H)-yl)methyl)phenyl) sulfamide]
> 1	COc1ccc2c(-c3ccc4c(c3)CCN(S(N)(=O)=O)C4)ccnc2c1 [Example 366, 6-(7-methoxyquinolin-4-yl)-3,4-dihydroisoquinoline-2(1H)-sulfonamide]
> 1	COc1ccc2c(c1)OCCC2Oc1ccc(NS(N)(=O)=O)cc1 (stereo not shown) [Example 399, (4-((7-methoxychroman-4-yl)oxy)phenyl)sulfamide]
> 1	N#Cc1cnc2cc3c(cc2c1N1CCC(CCNS(N)(=O)=O)CC1)OCO3 [Example 221, N-(2-(1-(7-cyano-[1,3]dioxolo[4,5-g]quinolin-8-yl)piperidin-4-yl)ethyl)sulfamide]
> 1	COc1cc2c(cc1OC)N(Cc1ccc(NS(N)(=O)=O)cc1)C(=O)CC2 [Example 173, N-(4-((6,7-dimethoxy-2-oxo-3,4-dihydroquinolin-1 (2H)-yl)methyl)phenyl) sulfamide]
> 1	NS(=O)(=O)NCCC1CCN(c2ncnc3c[nH]nc23)CC1 [Example 27, N-(2-(1-(1H-pyrazolo[4,3-d]pyrimidin-7-yl)piperidin-4-yl)ethyl)sulfamide]
> 1	COc1cc2ncnc(Nc3ccc(CC(=O)O)cc3)c2cc1OC [Example 332, 2-(4-((6,7-dimethoxyquinazolin-4-yl)amino)phenyl)acetic acid]
0.1 to 1	COc1ccc2c(-c3ccc(CNS(N)(=O)=O)cc3)coc2c1 [Example 348, N-(4-(6-methoxybenzofuran-3-yl)benzyl) sulfamide]
< 0.1	COc1ccc2c(Oc3ccc(NS(N)(=O)=O)c(OC)c3)ccnc2c1 [Example 78, N-(2-methoxy-4-((7-methoxyquinolin-4-yl)oxy)phenyl)sulfamide]
< 0.1	COc1ccc2c(Oc3ccc(N(C)S(N)(=O)=O)cc3)ccnc2c1 [Example 77, N-(4-((7-methoxyquinolin-4-yl)oxy)phenyl)-N-methylsulfamide]
0.1 to 1	COc1cc2ncnc(N3CCC(CCNS(=O)(=O)c4ccccn4)CC3)c2cc1OC [Example 155, N-(2-(1-(6,7-dimethoxyquinazolin-4-yl)piperidin-4-yl)ethyl)pyridine-2-sulfonamide]
< 0.1	COc1ccc2c(Oc3cc(F)c(NS(N)(=O)=O)cc3F)ccnc2c1 [Example 79, N-(2,5-difluoro-4-((7-methoxyquinolin-4-yl)oxy)phenyl)sulfamide]
0.1 to 1	COc1ccc2c(Oc3ccc(C(=O)O)c(OC)c3)ccnc2c1 [Example 347, 2-methoxy-4-((7-methoxyquinolin-4-yl)oxy)benzoic acid]
